Source: PMC4770715, “LIM kinase inhibitors disrupt mitotic microtubule organization and impair tumor cell proliferation” (Oncotarget, 2015)

How the values were obtained:
Experiment in all cases: biochemical
Set-up in all cases: KINOMEscan active-site competition binding, percent of control (100 = no competition)
Settings in all cases: competition binding, percent control
RET(V804M) = RET(V804M) (Homo sapiens, UniProt P07949, V804M)
Excerpt: (§1) Given the potential for the use of LIMK inhibitors as cancer chemotherapeutics, a high-throughput drug discovery and medicinal chemistry program was undertaken. Details of the screening methodology and description of initial hit matter were described in [38]. […] Details of their chemical synthesis are described in Charles et al.. […] These and additional physiochemical parameters are in Supplemental Table 5. […] Kinases inhibited >25% to 50% have yellow circles, 51% to 75% have orange circles, and >76% have red circles. In each case, the size of the circle is proportional to percentage inhibition. LIMK1 and LIMK2 positions are indicated in blue. Illustration reproduced courtesy of Cell Signaling Technology, Inc. (www.cellsignal.com). B. CRT0105950 structure and kinome selectivity mapping as described above. C.

JNK1 = biological target: T1, JNK1 (Homo sapiens, UniProt P45983)
T1 construct: gene MAPK8
Excerpt: as §1

TESK1 = TESK1 (Homo sapiens, UniProt Q15569)
TESK1, sequence (Q15569 whole entry): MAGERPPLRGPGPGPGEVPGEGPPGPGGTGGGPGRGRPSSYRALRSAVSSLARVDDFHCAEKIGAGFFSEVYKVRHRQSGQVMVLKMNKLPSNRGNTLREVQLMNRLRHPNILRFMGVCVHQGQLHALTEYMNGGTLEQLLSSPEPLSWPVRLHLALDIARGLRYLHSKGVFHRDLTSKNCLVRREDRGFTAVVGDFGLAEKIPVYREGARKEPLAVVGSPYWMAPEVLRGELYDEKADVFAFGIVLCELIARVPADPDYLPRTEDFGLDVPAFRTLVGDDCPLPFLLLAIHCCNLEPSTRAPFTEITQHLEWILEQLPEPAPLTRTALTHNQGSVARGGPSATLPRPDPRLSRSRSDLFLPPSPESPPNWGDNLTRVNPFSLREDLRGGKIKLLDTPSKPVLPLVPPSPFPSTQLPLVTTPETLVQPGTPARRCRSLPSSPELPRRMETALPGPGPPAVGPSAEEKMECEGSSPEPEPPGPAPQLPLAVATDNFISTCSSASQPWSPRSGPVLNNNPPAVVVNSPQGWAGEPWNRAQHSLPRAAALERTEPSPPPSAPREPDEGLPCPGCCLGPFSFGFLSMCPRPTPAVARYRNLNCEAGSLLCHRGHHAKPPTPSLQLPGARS
Excerpt: as §1

KIT(D816H) = KIT(D816H) (Homo sapiens, UniProt P10721, D816H)
Excerpt: as §1

TAOK1 = TAOK1 (Homo sapiens, UniProt Q7L7X3)
Excerpt: as §1

MET(Y1235D) = MET(Y1235D) (Homo sapiens, UniProt P08581, Y1235D)
Excerpt: as §1

TBK1 = TBK1 (Homo sapiens, UniProt Q9UHD2)
TBK1, sequence (Q9UHD2 whole entry): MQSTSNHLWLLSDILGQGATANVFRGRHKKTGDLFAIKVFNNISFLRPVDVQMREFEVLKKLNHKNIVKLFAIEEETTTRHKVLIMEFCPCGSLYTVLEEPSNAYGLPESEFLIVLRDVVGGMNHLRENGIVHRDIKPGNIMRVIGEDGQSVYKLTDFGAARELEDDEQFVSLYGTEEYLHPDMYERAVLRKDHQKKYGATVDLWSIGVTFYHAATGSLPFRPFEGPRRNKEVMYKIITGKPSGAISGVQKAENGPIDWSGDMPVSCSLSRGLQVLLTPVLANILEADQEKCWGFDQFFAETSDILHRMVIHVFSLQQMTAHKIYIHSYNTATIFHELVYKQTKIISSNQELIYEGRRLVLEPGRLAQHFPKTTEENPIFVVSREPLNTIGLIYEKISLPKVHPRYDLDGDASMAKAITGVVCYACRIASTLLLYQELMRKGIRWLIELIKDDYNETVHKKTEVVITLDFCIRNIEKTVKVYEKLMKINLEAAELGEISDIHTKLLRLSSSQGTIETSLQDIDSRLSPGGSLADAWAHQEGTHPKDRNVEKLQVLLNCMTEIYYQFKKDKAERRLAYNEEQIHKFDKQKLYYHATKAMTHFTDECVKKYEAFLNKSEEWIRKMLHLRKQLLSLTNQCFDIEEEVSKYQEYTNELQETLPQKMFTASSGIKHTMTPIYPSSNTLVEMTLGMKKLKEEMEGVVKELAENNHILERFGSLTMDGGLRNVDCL
Excerpt: as §1

[1] = biological target: T2, ABL1(Q252H)-nonphosphorylated (Homo sapiens, UniProt P00519, Q252H)
T2 construct: nonphosphorylated
Excerpt: as §1

LRRK2 = LRRK2 (Homo sapiens, UniProt Q5S007)
Excerpt: as §1

AKT2 = AKT2 (Homo sapiens, UniProt P31751)
Excerpt: as §1

[2] = biological target: T3, RSK2(Kin.Dom.1-N-terminal) (Homo sapiens, UniProt P51812)
T3 construct: gene RPS6KA3; Kin.Dom.1-N-terminal
Excerpt: as §1

[3] = biological target: T4, ABL1(T315I)-phosphorylated (Homo sapiens, UniProt P00519, T315I)
T4 construct: phosphorylated
Excerpt: as §1

NEK6 = NEK6 (Homo sapiens, UniProt Q9HC98)
NEK6, sequence (Q9HC98 whole entry): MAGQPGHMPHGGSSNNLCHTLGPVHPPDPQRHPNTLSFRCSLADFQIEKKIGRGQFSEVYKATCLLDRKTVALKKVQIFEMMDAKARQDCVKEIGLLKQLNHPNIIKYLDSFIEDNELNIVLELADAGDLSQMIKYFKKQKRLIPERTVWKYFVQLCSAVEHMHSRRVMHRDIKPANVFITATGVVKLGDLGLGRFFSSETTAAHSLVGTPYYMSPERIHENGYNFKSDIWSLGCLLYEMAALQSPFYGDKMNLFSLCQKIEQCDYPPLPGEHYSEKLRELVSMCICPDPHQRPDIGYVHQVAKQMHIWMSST
Excerpt: as §1

CSF1R = CSF1R (Homo sapiens, UniProt P07333)
Excerpt: as §1

PIK3CA(E545K) = PIK3CA(E545K) (Homo sapiens, UniProt P42336, E545K)
Excerpt: as §1

PFTAIRE2 = biological target: T5, PFTAIRE2 (Homo sapiens, UniProt Q96Q40)
T5 construct: gene CDK15
Excerpt: as §1

PYK2 = biological target: T6, PYK2 (Homo sapiens, UniProt Q14289)
T6 construct: gene PTK2B
Excerpt: as §1

PIK3C2B = PIK3C2B (Homo sapiens, UniProt O00750)
PIK3C2B, sequence (O00750 whole entry): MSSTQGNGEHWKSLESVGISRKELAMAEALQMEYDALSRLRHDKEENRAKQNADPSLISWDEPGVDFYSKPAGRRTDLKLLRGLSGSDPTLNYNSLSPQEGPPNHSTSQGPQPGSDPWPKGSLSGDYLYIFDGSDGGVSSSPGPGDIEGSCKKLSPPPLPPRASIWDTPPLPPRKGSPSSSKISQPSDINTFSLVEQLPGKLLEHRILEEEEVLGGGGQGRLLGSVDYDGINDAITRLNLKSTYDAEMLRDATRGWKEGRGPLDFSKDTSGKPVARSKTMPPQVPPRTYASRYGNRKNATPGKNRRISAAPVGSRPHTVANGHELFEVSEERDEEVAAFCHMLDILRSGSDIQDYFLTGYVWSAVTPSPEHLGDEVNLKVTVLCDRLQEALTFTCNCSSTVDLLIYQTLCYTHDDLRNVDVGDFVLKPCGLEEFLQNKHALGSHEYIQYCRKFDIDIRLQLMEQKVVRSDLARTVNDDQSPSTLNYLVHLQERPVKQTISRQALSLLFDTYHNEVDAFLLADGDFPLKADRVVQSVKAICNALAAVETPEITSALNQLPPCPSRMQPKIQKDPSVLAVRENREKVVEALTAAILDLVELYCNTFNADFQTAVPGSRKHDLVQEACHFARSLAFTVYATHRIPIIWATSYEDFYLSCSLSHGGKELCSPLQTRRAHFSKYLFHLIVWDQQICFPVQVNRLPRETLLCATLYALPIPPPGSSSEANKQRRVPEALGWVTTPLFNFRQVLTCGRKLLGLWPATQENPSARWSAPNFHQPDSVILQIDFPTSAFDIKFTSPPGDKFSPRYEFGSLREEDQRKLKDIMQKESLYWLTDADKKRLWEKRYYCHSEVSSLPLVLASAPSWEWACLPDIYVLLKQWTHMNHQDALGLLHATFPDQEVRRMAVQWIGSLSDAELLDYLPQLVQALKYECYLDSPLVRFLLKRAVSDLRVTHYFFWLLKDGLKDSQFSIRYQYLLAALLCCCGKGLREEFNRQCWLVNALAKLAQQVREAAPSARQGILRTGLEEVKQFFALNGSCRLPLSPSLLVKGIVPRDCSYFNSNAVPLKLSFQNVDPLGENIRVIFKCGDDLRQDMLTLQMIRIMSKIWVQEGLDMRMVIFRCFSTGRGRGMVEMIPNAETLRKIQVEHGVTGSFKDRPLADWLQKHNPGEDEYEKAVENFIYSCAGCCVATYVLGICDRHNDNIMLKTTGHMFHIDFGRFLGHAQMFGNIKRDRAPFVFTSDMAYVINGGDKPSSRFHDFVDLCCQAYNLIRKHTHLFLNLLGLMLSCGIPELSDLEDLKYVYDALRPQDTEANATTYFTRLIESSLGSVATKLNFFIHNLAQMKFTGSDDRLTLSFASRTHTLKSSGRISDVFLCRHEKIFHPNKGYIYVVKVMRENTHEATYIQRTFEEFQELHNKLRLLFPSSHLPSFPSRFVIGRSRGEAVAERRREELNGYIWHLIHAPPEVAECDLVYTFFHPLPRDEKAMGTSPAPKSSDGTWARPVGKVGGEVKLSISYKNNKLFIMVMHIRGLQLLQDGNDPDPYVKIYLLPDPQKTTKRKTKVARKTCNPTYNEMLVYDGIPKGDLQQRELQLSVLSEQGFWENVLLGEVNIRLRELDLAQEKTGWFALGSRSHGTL
Excerpt: as §1

MAP4K4 = MAP4K4 (Homo sapiens, UniProt O95819)
Excerpt: as §1

ERBB2 = ERBB2 (Homo sapiens, UniProt P04626)
ERBB2, sequence (P04626 whole entry): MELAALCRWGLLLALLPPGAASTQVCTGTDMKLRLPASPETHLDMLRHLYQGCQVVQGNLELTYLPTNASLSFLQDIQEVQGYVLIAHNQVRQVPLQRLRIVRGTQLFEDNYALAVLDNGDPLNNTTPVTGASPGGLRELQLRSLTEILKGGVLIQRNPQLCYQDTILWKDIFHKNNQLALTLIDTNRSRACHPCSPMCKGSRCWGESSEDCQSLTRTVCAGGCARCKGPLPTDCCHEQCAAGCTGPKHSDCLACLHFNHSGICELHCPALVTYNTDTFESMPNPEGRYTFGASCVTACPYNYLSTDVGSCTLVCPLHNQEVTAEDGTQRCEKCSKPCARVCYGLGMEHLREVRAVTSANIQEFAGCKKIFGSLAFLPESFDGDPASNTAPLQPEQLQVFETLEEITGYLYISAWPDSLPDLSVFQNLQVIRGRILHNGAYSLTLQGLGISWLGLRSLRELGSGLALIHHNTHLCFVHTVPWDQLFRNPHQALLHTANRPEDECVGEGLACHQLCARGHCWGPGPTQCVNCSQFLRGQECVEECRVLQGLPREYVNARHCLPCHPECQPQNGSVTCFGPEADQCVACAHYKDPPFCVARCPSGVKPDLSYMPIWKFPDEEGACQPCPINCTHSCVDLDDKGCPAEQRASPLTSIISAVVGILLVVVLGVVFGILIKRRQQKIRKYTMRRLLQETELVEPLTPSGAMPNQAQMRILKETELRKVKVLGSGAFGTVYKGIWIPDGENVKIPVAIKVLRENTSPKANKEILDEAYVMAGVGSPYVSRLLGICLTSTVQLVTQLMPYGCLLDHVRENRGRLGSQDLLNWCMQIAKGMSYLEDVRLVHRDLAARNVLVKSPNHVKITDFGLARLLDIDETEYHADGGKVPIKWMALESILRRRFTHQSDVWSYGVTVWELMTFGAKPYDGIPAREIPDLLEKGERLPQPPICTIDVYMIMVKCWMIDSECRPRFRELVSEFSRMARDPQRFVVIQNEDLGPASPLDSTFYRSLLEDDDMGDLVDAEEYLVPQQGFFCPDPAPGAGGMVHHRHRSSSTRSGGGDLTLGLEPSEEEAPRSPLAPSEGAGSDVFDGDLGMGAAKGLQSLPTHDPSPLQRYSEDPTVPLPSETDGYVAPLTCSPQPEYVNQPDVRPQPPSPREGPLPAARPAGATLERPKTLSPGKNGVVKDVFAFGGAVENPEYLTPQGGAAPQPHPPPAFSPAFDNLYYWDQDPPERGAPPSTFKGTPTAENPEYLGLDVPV
Excerpt: as §1

CDK9 = CDK9 (Homo sapiens, UniProt P50750)
CDK9, sequence (P50750 whole entry): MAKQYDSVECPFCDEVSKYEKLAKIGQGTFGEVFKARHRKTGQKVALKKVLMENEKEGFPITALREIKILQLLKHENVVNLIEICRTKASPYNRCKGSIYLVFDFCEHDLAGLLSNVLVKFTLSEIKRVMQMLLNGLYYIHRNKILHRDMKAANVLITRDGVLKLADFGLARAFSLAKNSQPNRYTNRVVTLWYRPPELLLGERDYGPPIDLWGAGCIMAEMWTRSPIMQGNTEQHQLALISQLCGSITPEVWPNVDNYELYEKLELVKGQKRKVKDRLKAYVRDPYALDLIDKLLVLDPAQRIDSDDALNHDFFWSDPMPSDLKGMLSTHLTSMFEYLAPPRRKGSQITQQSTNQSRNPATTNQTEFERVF
Excerpt: as §1

GRK4 = GRK4 (Homo sapiens, UniProt P32298)
Excerpt: as §1

SMILES	remaining binding at 10 µM (RET(V804M))	remaining binding at 10 µM (JNK1)	remaining binding at 10 µM (TESK1)	remaining binding at 10 µM (KIT(D816H))	remaining binding at 10 µM (TAOK1)	remaining binding at 10 µM (MET(Y1235D))	remaining binding at 10 µM (TBK1)	remaining binding at 10 µM [1]	remaining binding at 10 µM (LRRK2)	remaining binding at 10 µM (AKT2)	remaining binding at 10 µM [2]	remaining binding at 10 µM [3]	remaining binding at 10 µM (NEK6)	remaining binding at 10 µM (CSF1R)	remaining binding at 10 µM (PIK3CA(E545K))	remaining binding at 10 µM (PFTAIRE2)	remaining binding at 10 µM (PYK2)	remaining binding at 10 µM (PIK3C2B)	remaining binding at 10 µM (MAP4K4)	remaining binding at 10 µM (ERBB2)	also measured
COc1ccc(-c2cnccc2-c2cnc(NC(=O)C(C)C)s2)c(C(F)(F)F)c1 [CRT0105446, N-{5-[3-(4-Methoxy-2-trifluoromethyl-phenyl)-pyridin-4-yl]-hiazol-2-yl}-isobutyramide]	68%	34%	96%	89%	93%	96%	82%	83%	91%	100%	37%	99%	95%	51%	97%	18%	100%	100%	68%	94%	remaining binding at 10 µM (CDK9): 28%; remaining binding at 10 µM (GRK4): 100%
Cc1ccc(-c2cnccc2-c2cnc(Nc3ccc(O)cc3)s2)c(Cl)c1 [CRT0105950, 4-{5-[3-(2-Chloro-4-methyl-phenyl)-pyridin-4-yl]-thiazol-2-ylamino}-phenol]	3.4%	40%	20%	46%	17%	14%	52%	70%	54%	100%	0.1%	79%	100%	1.2%	100%	18%	2.2%	100%	11%	80%	remaining binding at 10 µM (CDK9): 65%; remaining binding at 10 µM (GRK4): 89%
